# Literature values, collected in patent US20090291152A1, “DIBENZOTHIAZEPINE DERIVATIVES” (Concert Pharmaceuticals Inc., priority 2006, published 2009).
# How the values were obtained:
# [1] = majority of the metabolites
# [2] = patients with hepatic impairment
smiles,measurement,setting,value
"OCCOCCN1CCN(C2=Nc3ccccc3Sc3ccccc32)CC1 [quetiapine, 11-[4-[2-(2-Hydroxyethoxy)ethyl]piperazin-1-yl]dibenzo[b,f][1,4]thiazepine]",metabolites excreted in the urine,[1],73%
same,increase in AUC,[2],3 fold
same,increase in Cmax,[2],3 fold
